Among the data in patent US20260092074A1, “Annelated Pyridines as Steroidogenesis Inhibitors, Preparation Method and Use Thereof” (Guangzhou Vinnocent Pharmaceutical Limited, priority 2022, published 2026) are IC50 values, retold here.

Each structure is given as a SMILES string.

One assay concerns the target T1, human CYP11B2 (Homo sapiens, UniProt P19099).
T1 construct: expressed in transfected cells
T1 sequence (P19099 25-503): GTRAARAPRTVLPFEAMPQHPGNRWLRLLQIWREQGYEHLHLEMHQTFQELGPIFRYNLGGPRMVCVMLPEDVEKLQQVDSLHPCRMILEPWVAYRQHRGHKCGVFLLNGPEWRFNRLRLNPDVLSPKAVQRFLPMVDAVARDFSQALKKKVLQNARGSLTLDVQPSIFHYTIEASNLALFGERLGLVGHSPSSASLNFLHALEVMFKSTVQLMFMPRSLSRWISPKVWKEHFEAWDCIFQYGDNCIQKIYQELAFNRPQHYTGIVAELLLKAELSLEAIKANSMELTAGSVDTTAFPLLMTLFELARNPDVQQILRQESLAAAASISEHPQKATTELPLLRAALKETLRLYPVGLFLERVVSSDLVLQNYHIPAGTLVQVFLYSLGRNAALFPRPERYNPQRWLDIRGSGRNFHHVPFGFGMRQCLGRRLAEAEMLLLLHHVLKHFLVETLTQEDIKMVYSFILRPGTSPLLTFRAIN
The assay is described as follows: Inhibition of hCYP11B2 in transfected V79 cells. It counts as cell-based. The following applies: hamster V79 cells expressing human CYP11B2; substrate 11-deoxycorticosterone 200 nM. The procedure, abridged:
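Hamster V79 cells stably co-expressing human CYP11B2 and rat NADPH-P450 reductase were pre-incubated with compounds for 2 hours, then given 200 nM 11-deoxycorticosterone for 30 minutes before ethyl acetate quench. Substrate and product were quantified by LC-MS/MS or HPLC at 260 nm, and IC50 was derived from percent inhibition.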

Another assay addresses T2, human CYP11B1 (Homo sapiens, UniProt P15538).
T2 construct: expressed in transfected cells
T2 sequence (P15538 25-503): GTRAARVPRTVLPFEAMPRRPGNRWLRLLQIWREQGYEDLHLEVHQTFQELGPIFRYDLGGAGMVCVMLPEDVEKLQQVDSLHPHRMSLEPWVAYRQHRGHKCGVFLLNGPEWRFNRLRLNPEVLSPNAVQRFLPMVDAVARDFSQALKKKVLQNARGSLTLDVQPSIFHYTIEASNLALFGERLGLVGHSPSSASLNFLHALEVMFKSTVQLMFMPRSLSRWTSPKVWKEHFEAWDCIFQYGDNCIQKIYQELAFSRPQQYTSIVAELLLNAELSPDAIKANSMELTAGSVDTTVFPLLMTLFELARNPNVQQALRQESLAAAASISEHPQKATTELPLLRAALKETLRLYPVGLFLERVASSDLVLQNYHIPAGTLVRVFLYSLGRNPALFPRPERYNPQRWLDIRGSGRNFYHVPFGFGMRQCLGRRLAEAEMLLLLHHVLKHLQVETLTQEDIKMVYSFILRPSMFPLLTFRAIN
The assay is described as follows: Inhibition of hCYP11B1 in transfected V79 cells. It counts as cell-based. The following applies: hamster V79 cells expressing human CYP11B1; substrate 11-deoxycortisol 200 nM. The procedure, abridged: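 V79 hamster cells stably expressing human CYP11B1 and rat NADPH-P450 reductase were preincubated with compounds for 2 h. 11-Deoxycortisol (200 nM) was then added as substrate for 30 min before ethyl acetate quench. Substrate and product were quantified by LC-MS/MS or HPLC at 260 nm, and IC50 was derived from percent inhibition.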

One may read the IC50 as the point on the concentration scale where inhibition reaches its midpoint. High values mean lower potency, low ones higher potency. In the case of `N#Cc1ccc(-c2cncc3c2CCN3C(=O)Cc2ccc(F)cc2)cc1` [C69, 4-(1-(2-(4-Fluorophenyl)acetyl)-2,3-dihydro-1H-pyrrolo[2,3-c]pyridin-4-yl)benzonitrile], the figures for the IC50 against human CYP11B2 and against human CYP11B1 were 2.4 nM and 134 nM, respectively.
For `N#Cc1ccc(-c2cncc3c2CCN3C(=O)Cc2ccccc2[N+](=O)[O-])cc1` [C70, 4-(1-(2-(2-Nitrophenyl)acetyl)-2,3-dihydro-1H-pyrrolo[2,3-c]pyridin-4-yl)benzonitrile], in that order: 12 nM and 108 nM.
For `N#Cc1ccc(-c2cncc3c2CCN3C(=O)Cc2cccc(Cl)c2)cc1` [C71, 4-(1-(2-(3-Chlorophenyl)acetyl)-2,3-dihydro-1H-pyrrolo[2,3-c]pyridin-4-yl)benzonitrile], in that order: 2 nM and 28 nM.
With `Cc1ccc(CC(=O)N2CCc3c(-c4ccc(C#N)cc4)cncc32)cc1` [C72, 4-(1-(2-(p-Tolyl)acetyl)-2,3-dihydro-1H-pyrrolo[2,3-c]pyridin-4-yl)benzonitrile], the IC50 came out at 6.8 nM against human CYP11B2 and 51 nM on human CYP11B1.
For `N#Cc1ccc(-c2cncc3c2CCN3C(=O)Cc2ccc(Br)cc2)cc1` [C73, 4-(1-(2-(4-Bromophenyl)acetyl)-2,3-dihydro-1H-pyrrolo[2,3-c]pyridin-4-yl)benzonitrile], in that order: 11 nM and 124 nM.
For the compound `N#Cc1ccc(-c2cncc3c2CCN3C(=O)Cc2cccc(C(F)(F)F)c2)cc1` [C74, 4-(1-(2-(3-(Trifluoromethyl)phenyl)acetyl)-2,3-dihydro-1H-pyrrolo[2,3-c]pyridin-4-yl)benzonitrile], the IC50 turned out to be 9 nM against human CYP11B2 and 53 nM against human CYP11B1.
For `N#Cc1ccc(-c2cncc3c2CCN3C(=O)Cc2ccc(C(F)(F)F)cc2)cc1` [C75, 4-(1-(2-(4-(Trifluoromethyl)phenyl)acetyl)-2,3-dihydro-1H-pyrrolo[2,3-c]pyridin-4-yl)benzonitrile], in that order: 35 nM and 111 nM.
For `COc1ccc(CC(=O)N2CCc3c(-c4ccc(C#N)cc4)cncc32)cc1` [C76, 4-(1-(2-(4-Methoxyphenyl)acetyl)-2,3-dihydro-1H-pyrrolo[2,3-c]pyridin-4-yl)benzonitrile], in that order: 9 nM and 62 nM.
For `N#Cc1ccc(-c2cncc3c2CCN3C(=O)Cc2ccc(Cl)cc2)cc1` [C77, 4-(1-(2-(4-Chlorophenyl)acetyl)-2,3-dihydro-1H-pyrrolo[2,3-c]pyridin-4-yl)benzonitrile], in that order: 8 nM and 376 nM.
As for `COc1ccc(C(=O)N2CCc3c(-c4cc5cc(C#N)ccc5o4)cncc32)cc1` [C79, 2-(1-(4-Methoxybenzoyl)-2,3-dihydro-1H-pyrrolo[2,3-c]pyridin-4-yl)benzofuran-5-carbo nitrile], the IC50 against human CYP11B2 amounted to 46 nM; at human CYP11B1, 2950 nM.
Take `O=C(C1CN(Cc2cccc(F)c2)C1)N1CCc2c(-c3cc4cc(Cl)ccc4[nH]3)cncc21` [C80, (4-(5-Chloro-1H-indol-2-yl)-2,3-dihydro-1H-pyrrolo[2,3-c]pyridin-1-yl)(1-(3-fluorobenzyl)azetidin-3-yl)methanone]: the IC50 against human CYP11B2 turned out to be 22 nM; at human CYP11B1, 476 nM.
For `N#Cc1ccc2[nH]c(-c3cncc4c3CCN4C(=O)C3CN(Cc4cccc(F)c4)C3)cc2c1` [C81, 2-(1-(1-(3-Fluorobenzyl)azetidine-3-carbonyl)-2,3-dihydro-1H-pyrrolo[2,3-c]pyridin-4-yl)-1H-indole-5-carbonitrile], in that order: 15 nM and 438 nM.
For `COc1cccc(C(=O)N2CCc3c(C4=CCN(C#N)CC4)cncc32)c1` [C82, 4-(1-(3-Methoxybenzoyl)-2,3-dihydro-1H-pyrrolo[2,3-c]pyridin-4-yl)-3,6-dihydropyridine-1 (2H)-carbonitrile], in that order: 3 nM and 537 nM.
Turning to `COc1cccc(C(=O)N2CCc3c(N4CCN(C#N)CC4)cncc32)c1` [C83, 4-(1-(3-Methoxybenzoyl)-2,3-dihydro-1H-pyrrolo[2,3-c]pyridin-4-yl)piperazine-1-carbonitrile], the IC50 against human CYP11B2 was found to be 6 nM; on human CYP11B1, 672 nM.
For `N#Cc1ccc(-c2cncc3c2ccn3S(=O)(=O)c2ccc([N+](=O)[O-])cc2)cc1` [E1, 4-(1-((4-Nitrophenyl)sulfonyl)-1H-pyrrolo[2,3-c]pyridin-4-yl)benzonitrile], in that order: 0.5 nM and 0.5 nM.
For `Cc1ccc(S(=O)(=O)n2ccc3c(-c4ccc(C#N)cc4)cncc32)cc1` [E2, 4-(1-Tosyl-1H-pyrrolo[2,3-c]pyridin-4-yl)benzonitrile], in that order: 0.5 nM and 0.4 nM.
`N#Cc1ccc(-c2cncc3c2ccn3S(=O)(=O)c2ccccc2)cc1` [E3, 4-(1-(Phenylsulfonyl)-1H-pyrrolo[2,3-c]pyridin-4-yl)benzonitrile]: the figures for the 50% inhibitory concentration (IC50) against human CYP11B2 and at human CYP11B1 were 0.4 nM and 0.3 nM, respectively.
For `Cc1cccc(S(=O)(=O)n2ccc3c(-c4ccc(C#N)cc4)cncc32)c1` [E4, 4-(1-(m-Tolylsulfonyl)-1H-pyrrolo[2,3-c]pyridin-4-yl)benzonitrile], in that order: 0.4 nM and 0.3 nM.
For `N#Cc1ccc(-c2cncc3c2ccn3S(=O)(=O)c2cccc(C(F)(F)F)c2)cc1` [E5, 4-(1-((3-(Trifluoromethyl)phenyl)sulfonyl)-1H-pyrrolo[2,3-c]pyridin-4-yl)benzonitrile], in that order: 0.3 nM and 0.6 nM.
For `N#Cc1ccc(-c2cncc3c2ccn3S(=O)(=O)c2ccc(F)cc2)cc1` [E6, 4-(1-((4-Fluorophenyl)sulfonyl)-1H-pyrrolo[2,3-c]pyridin-4-yl)benzonitrile], in that order: 0.13 nM and 0.3 nM.
`N#Cc1ccc(-c2cncc3c2ccn3S(=O)(=O)c2ccc(C(F)(F)F)cc2)cc1` [E7, 4-(1-((4-(Trifluoromethyl)phenyl)sulfonyl)-1H-pyrrolo[2,3-c]pyridin-4-yl)benzonitrile]: the IC50 against human CYP11B2 was 0.1 nM; against human CYP11B1 it was 0.2 nM.
For `N#Cc1ccc(-c2cncc3c2ccn3S(=O)(=O)c2ccc(Cl)cc2)cc1` [E8, 4-(1-((4-Chlorophenyl)sulfonyl)-1H-pyrrolo[2,3-c]pyridin-4-yl)benzonitrile], in that order: 0.1 nM and 0.6 nM.
For `COc1ccc(S(=O)(=O)n2ccc3c(-c4ccc(C#N)cc4)cncc32)cc1` [E9, 4-(1-((4-Methoxyphenyl)sulfonyl)-1H-pyrrolo[2,3-c]pyridin-4-yl)benzonitrile], in that order: 0.1 nM and 0.3 nM.
For `N#Cc1ccc(-c2cncc3c2ccn3S(=O)(=O)c2cccc(C#N)c2)cc1` [E10, 3-((4-(4-Cyanophenyl)-1H-pyrrolo[2,3-c]pyridin-1-yl)sulfonyl)benzonitrile], in that order: 0.6 nM and 0.3 nM.
Take `N#Cc1ccc(-c2cncc3c2ccn3S(=O)(=O)c2cccc(Cl)c2)cc1` [E11, 4-(1-((3-Chlorophenyl)sulfonyl)-1H-pyrrolo[2,3-c]pyridin-4-yl)benzonitrile]: the IC50 amounted to 0.1 nM on human CYP11B2 and 0.2 nM against human CYP11B1.
For `N#Cc1ccc(-c2cncc3c2ccn3S(=O)(=O)c2cccc(F)c2)cc1` [E12, 4-(1-((3-Fluorophenyl)sulfonyl)-1H-pyrrolo[2,3-c]pyridin-4-yl)benzonitrile], in that order: 0.3 nM and 0.5 nM.
For `N#Cc1ccc(-c2cncc3c2ccn3S(=O)(=O)c2cccc([N+](=O)[O-])c2)cc1` [E13, 4-(1-((3-Nitrophenyl)sulfonyl)-1H-pyrrolo[2,3-c]pyridin-4-yl)benzonitrile], the concentration for half-maximal inhibition (IC50) against human CYP11B2 amounted to 0.3 nM; against human CYP11B1, 0.5 nM.
For `N#Cc1ccc(-c2cncc3c2ccn3S(=O)(=O)c2ccc(C#N)cc2)cc1` [E14, 4-((4-(4-Cyanophenyl)-1H-pyrrolo[2,3-c]pyridin-1-yl)sulfonyl)benzonitrile], in that order: 0.08 nM and 0.5 nM.
